± gives the standard deviation of the averaged measurements.
Tested on: KHOS-NP
Assay: relative viability vs DMSO control (72 h) (fraction); higher = more viable cells
Summary of the method: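 Percent growth from ATPLite readings, averaged over up to triplicate wells, was used as relative viability. Sarcoma cell lines were seeded into 384-well plates for 80–90% confluence, dosed after 24 h, and kept 72 h at 37 °C, 5% CO2. Data were rescaled to a range where 1 is full and 0 is none.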

| SMILES | relative viability (0.00017 µM) | relative viability (0.00051 µM) | relative viability (0.00152 µM) | relative viability (0.00457 µM) | relative viability (0.01372 µM) | relative viability (0.04115 µM) | relative viability (0.1235 µM) | relative viability (0.3704 µM) | relative viability (1.111 µM) | relative viability (3.333 µM) | relative viability (10 µM) |
| --- | --- | --- | --- | --- | --- | --- | --- | --- | --- | --- | --- |
| CCN1CCN(Cc2ccc(Nc3ncc(F)c(-c4cc(F)c5nc(C)n(C(C)C)c5c4)n3)nc2)CC1 [Abemaciclib] | 1.04 ± 0.032 | 1.02 ± 0.029 | 1.02 ± 0.018 | 1.03 ± 0.017 | 1.033 ± 0.0059 | 1.033 ± 0.01 | 1.04 ± 0.014 | 1.055 ± 0.0084 | 1.01 ± 0.048 | 0.753 ± 0.036 | 0.6015 ± 0.0059 |
| CC(C)NC(=O)C1CCC(n2c(NC(=O)c3ccc(F)cc3)nc3ccc(CN4CCC(C(C)(C)O)CC4)cc32)CC1 (centres undefined) [Belizatinib] | 1.09 ± 0.025 | 1.095 ± 0.005 | 1.109 ± 0.0095 | 1.1 ± 0.02 | 1.104 ± 0.011 | 1.1 ± 0.021 | 1.1 ± 0.016 | 1.09 ± 0.028 | 1.09 ± 0.033 | 0.996 ± 0.059 | 0.654 ± 0.033 |
| CC[C@H](Nc1ncnc2[nH]cnc12)c1nc2cccc(F)c2c(=O)n1-c1ccccc1 [Idelalisib] | 1.117 ± 0.0096 | 1.12 ± 0.017 | 1.12 ± 0.022 | 1.105 ± 0.01 | 1.11 ± 0.041 | 1.11 ± 0.025 | 1.1 ± 0.046 | 1.1 ± 0.024 | 1.085 ± 0.0061 | 1.06 ± 0.043 | 1.04 ± 0.019 |
| CC(C)(C)c1cc(NC(=O)Nc2ccc(-c3cn4c(n3)sc3cc(OCCN5CCOCC5)ccc34)cc2)no1 [Quizartinib] | 1.13 ± 0.012 | 1.1 ± 0.027 | 1.1 ± 0.019 | 1.08 ± 0.035 | 1.096 ± 0.0028 | 1.09 ± 0.013 | 1.069 ± 0.0099 | 1.07 ± 0.034 | 1.05 ± 0.025 | 0.998 ± 0.067 | 0.99 ± 0.032 |
| Cc1cnc(Nc2ccc(OCCN3CCCC3)cc2)nc1Nc1cccc(S(=O)(=O)NC(C)(C)C)c1 [Fedratinib] | 1.09 ± 0.023 | 1.08 ± 0.049 | 1.08 ± 0.05 | 1.09 ± 0.016 | 1.07 ± 0.022 | 1.06 ± 0.018 | 1.02 ± 0.029 | 1.01 ± 0.039 | 0.905 ± 0.046 | 0.511 ± 0.017 | 0.216 ± 0.0037 |
| CC1(C)CNc2cc(NC(=O)c3cccnc3NCc3ccncc3)ccc21 [Motesanib] | 1.03 ± 0.03 | 1.04 ± 0.021 | 1.03 ± 0.021 | 1.01 ± 0.028 | 1.02 ± 0.037 | 1.02 ± 0.023 | 1.03 ± 0.013 | 1.03 ± 0.021 | 1 ± 0.021 | 0.973 ± 0.024 | 0.882 ± 0.048 |
| Nc1cc(C(F)(F)F)c(-c2cc(N3CCOCC3)nc(N3CCOCC3)n2)cn1 [Buparlisib] | 1.067 ± 0.01 | 1.03 ± 0.024 | 1.07 ± 0.038 | 1.06 ± 0.012 | 1.07 ± 0.033 | 1.05 ± 0.013 | 1.07 ± 0.022 | 1.07 ± 0.048 | 0.944 ± 0.053 | 0.426 ± 0.026 | 0.266 ± 0.013 |
| Cc1cc(C)c(/C=C2\C(=O)Nc3ccccc32)[nH]1 [Semaxanib] | 1.04 ± 0.035 | 1.04 ± 0.025 | 1.05 ± 0.028 | 1.05 ± 0.037 | 1.03 ± 0.041 | 1.05 ± 0.02 | 1.04 ± 0.03 | 1 ± 0.027 | 0.989 ± 0.027 | 1.002 ± 0.008 | 0.927 ± 0.025 |
| CCc1cc2c(cc1N1CCC(N3CCOCC3)CC1)C(C)(C)c1[nH]c3cc(C#N)ccc3c1C2=O [Alectinib] | 1.07 ± 0.032 | 1.09 ± 0.031 | 1.082 ± 0.0076 | 1.08 ± 0.011 | 1.08 ± 0.013 | 1.089 ± 0.0044 | 1.09 ± 0.021 | 1.074 ± 0.0034 | 1.06 ± 0.026 | 1.05 ± 0.01 | 1.04 ± 0.044 |
| Cn1cnc2c(F)c(Nc3ccc(Br)cc3F)c(C(=O)NOCCO)cc21 [Binimetinib] | 1.06 ± 0.034 | 1.09 ± 0.015 | 1.081 ± 0.004 | 1.097 ± 0.0049 | 1.06 ± 0.045 | 0.943 ± 0.075 | 0.857 ± 0.012 | 0.802 ± 0.066 | 0.425 ± 0.015 | 0.291 ± 0.016 | 0.276 ± 0.012 |
| C=CC(=O)Nc1cccc(Oc2nc(Nc3ccc(N4CCN(C)CC4)cc3)nc3ccsc23)c1 [Olmutinib] | 1.058 ± 0.01 | 1.06 ± 0.011 | 1.068 ± 0.0024 | 1.067 ± 0.0084 | 1.07 ± 0.019 | 1.08 ± 0.026 | 1.054 ± 0.0094 | 1.074 ± 0.0078 | 1.06 ± 0.017 | 1.04 ± 0.029 | 0.926 ± 0.081 |
| CN1CCN(c2ccc3nc(-c4c(N)c5c(F)cccc5[nH]c4=O)[nH]c3c2)CC1 [Dovitinib] | 1.08 ± 0.038 | 1.11 ± 0.018 | 1.107 ± 0.0074 | 1.104 ± 0.007 | 1.13 ± 0.025 | 1.11 ± 0.029 | 1.1 ± 0.033 | 1.04 ± 0.07 | 1.03 ± 0.035 | 0.677 ± 0.029 | 0.248 ± 0.032 |
| O=C(Cc1ccc(-c2ccc(OCCN3CCOCC3)cc2)cn1)NCc1ccccc1 [KX2-391] | 1.106 ± 0.0028 | 1.11 ± 0.033 | 1.11 ± 0.031 | 1.11 ± 0.036 | 1.09 ± 0.03 | 1.039 ± 0.01 | 0.586 ± 0.013 | 0.456 ± 0.026 | 0.378 ± 0.0089 | 0.376 ± 0.0087 | 0.364 ± 0.028 |
| C[C@@H]1COCCN1c1cc(-c2ccnn2C)c2ccnc(-c3ccn[nH]3)c2n1 | 1.07 ± 0.036 | 1.07 ± 0.012 | 1.07 ± 0.025 | 1.06 ± 0.029 | 1.06 ± 0.02 | 1.09 ± 0.026 | 1 ± 0.037 | 0.898 ± 0.025 | 0.538 ± 0.042 | 0.377 ± 0.0063 | 0.281 ± 0.026 |

Source: the supplement of paper PMC10883282
